Experimental data taken from patent US7449466B2, “Cyclic aminophenyl sulfamate derivative” (Aska Pharmaceutical Co., Ltd., priority 2003, dated 2008).

Tests used:
MCF-7 cells = test: MCF-7 cell proliferation measurement (MTT) for examining estrogenic activity; type: cell-based, human; conditions: 4 days, 570 nm
Experimental: (3) MCF-7 Cell Proliferation Measurement for Examining Estrogenic Activity:
Stimulation of MCF-7 cell proliferation induced by estrogenic activity of each test compound was measured.
MCF-7 cells were cultured in 10% fetal bovine serum (FBS)-containing RPMI 1640 medium which was free from Phenol Red, using a 75 cm^2 culture flask. Then the medium was changed to RPMI 1640 medium containing 10% of FBS from which emdogenous steroid had been eliminated by charcoal treatment but containing no Phenol Red. Renewing the medium every two days, the culture was continued for 4 days. By this step estrogen was removed from the MCF-7 cells.
The MCF-7 cells were seeded on 96-well plates, 2,000 cells per well, and cultured for 24 hours to immobilize the cells on the plate. After the cell immobilization, the medium in each well was changed to RPMI 1640 medium containing 10^−6M test compound and 10% of charcoal-treated FBS but containing no Phenol Red, and the culture was continued for further 4 days, during which the medium was changed every day to one newly prepared before the use. Also control wells to which no test compound was added were provided.
After the end of the culture, the cell proliferation was measured by MTT (3-(4,5-dimethylthiazol-2-yl)-2,5-diphenyl-2H-tetrazolium bromide; Sigma-Aldrich Japan Co.) method. That is, an MTT solution as dissolved in PBS at a concentration of 5 mg/mL was added to the 96-well plate accommodating the cells, at a rate of 10 μL/well, followed by 2 hours' incubation at 37° C. After the end of the incubation, the medium was removed and the formazan which was taken into the cells and changed was dissolved with 100 μL of dimethylsulfoxide. Absorbance of the formazan was measured at wavelength 570 nm, using a microplate reader, subtracting the 630 nm background.
As shown by the Table 3, absorbance values of the wells to which the test compounds were added were invariably less than 150% of the absorbance of the control well, and it was confirmed that the test compounds were free of estrogenic activity.

steroid sulfatase = molecular target: T1, steroid sulfatase (Homo sapiens, UniProt P08842); test: Steroid sulfatase inhibitory activity (in vitro), microsomal fraction of MCF-7 cells, [3H]estrone-3-sulfate hydrolysis; type: biochemical; parameters: microsomal fraction of MCF-7 human breast cancer cells was used; endogenous in cells; host or cells: MCF-7 human breast cancer cells (microsomal fraction); conditions: MCF-7 microsomal fraction, 37° C., 30 minutes
T1 sequence (P08842 22-583): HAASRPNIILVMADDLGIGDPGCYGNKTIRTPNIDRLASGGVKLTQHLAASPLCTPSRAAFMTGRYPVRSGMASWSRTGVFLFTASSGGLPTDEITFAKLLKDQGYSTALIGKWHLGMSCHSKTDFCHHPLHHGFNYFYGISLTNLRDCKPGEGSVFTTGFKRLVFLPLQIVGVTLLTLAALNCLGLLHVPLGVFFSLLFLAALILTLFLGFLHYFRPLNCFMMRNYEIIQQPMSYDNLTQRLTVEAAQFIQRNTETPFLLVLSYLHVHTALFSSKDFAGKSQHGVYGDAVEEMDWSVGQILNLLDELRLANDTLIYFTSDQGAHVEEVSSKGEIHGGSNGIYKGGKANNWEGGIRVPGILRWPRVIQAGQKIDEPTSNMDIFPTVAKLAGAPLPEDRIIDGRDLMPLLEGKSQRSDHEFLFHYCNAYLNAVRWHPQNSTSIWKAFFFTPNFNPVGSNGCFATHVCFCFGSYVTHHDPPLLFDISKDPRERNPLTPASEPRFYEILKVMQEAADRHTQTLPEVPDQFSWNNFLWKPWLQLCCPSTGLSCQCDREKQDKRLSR
Experimental: (1) Measurement of Steroid Sulfatase Inhibitory Activity (in vitro):
As the source of steroid sulfatase enzyme, microsomal fraction of MCF-7 human breast cancer cells was used.
To phosphate buffered saline (PBS), one of the test compounds, the microsomal fraction and 50 μL of 60 μM estrone-3-sulfate containing about 100 nCi of [6,7-^3H]estrone-3-sulfate (purchased from Perkin Elmer Life Sciences, Boston, Mass., USA; specific activity, 40-60 Ci/mmol) were added to make the total amount of the reaction system 150 μL, which was incubated at 37° C. for 30 minutes. After the incubation, 50 μL of PBS containing about 2 nCi of [4-^14C] estrone (purchased from Perkin Elmer Life Sciences, Boston, Mass., USA; specific activity 45-60 mCi/mmol) was added and stirred. Further 800 μL of toluene was added, and the whole system was thoroughly shaken for 30 seconds, followed by centrifugation at 2,000×g for 10 minutes to separate the acqueous phase from the organic phase. A part (400 μL) of the organic phase was taken and measured of its ^3H and ^14C contents with scintillation spectrometer.
The mass of hydrolyzed [6,7-^3H]estrone-3-sulfate was calculated from the count number of the obtained ^3H (as corrected regarding the amount of the used organic phase and the recovered amount of [4-^14C]estrone) and the specific activity of the substrate ([6,7-^3H]estrone-3-sulfate) to determine the steroid sulfatase inhibitory rate of each test compound.

[1] = system: Chinese hamster lung fibroblast cells (CHL/IU cells); test: Chromosome aberration test using mammals' cultured cells; type: cell-based; conditions: short time and continuous treatment, negative = 5% or less
Experimental: (7) Chromosome Aberration Test Using Mammals' Cultured Cells, for Examining Genetic Toxicity: Presence of clastogenic activity of the test compounds on cultured cells was examined by a chromosome aberration test using mammals' cultured cells (Mutat. Res., 48, 337-354). The test was conducted by short time treatment method and continuous treatment method, using Chinese hamster lung fibroblast cells (CHL/IU cells). […] After the end of the culture, the medium was removed and 5 mL of a fresh medium containing solvent or a test compound at the concentration levels designed as above was added to the dishes where the continuous treatment was intended. In the short time treatment in which no S9mix was added, 3 ML of the fresh medium similar to the above was added, and where S9mix was added, 3 mL of a fresh medium formed by adding 0.5 mL of S9mix to 2.5 mL of the fresh medium similar to the above was added to the respective dishes. […] In the continuous treatment, the culture time was increased to 24 hours. In both the short time treatment and continuous treatment, 50 μL of 10 μg/mL colcemide solution was added at two hours preceding the end of the culture. After the end of the culture, the cells were detached by 0.25% trypsine solution and transferred into a centifugation tube. […]

NS(=O)(=O)Oc1ccc(N2CCN(CCCC3CCCCC3)CC2)cc1F [Example 24, 4-[4-(3-cyclohexylpropyl)piperazin-1-yl]-2-fluorophenyl-O-sulfamate]
Absorbance relative to that of the control well (10^−6 M, %) (MCF-7 cells): 74.6% | Inhibitory rate (%) (10^−6 M) (steroid sulfatase; 10^−6 M test compound): 88.8% | Inhibitory rate (%) (10^−7 M) (steroid sulfatase; 10^−7 M test compound): 31.1% | Chromosome aberration test: Numerical abnormality [1]: negative | Chromosome aberration test: Structural abnormality [1]: negative
